Data as given in ChEMBL document CHEMBL5241132, “Design, synthesis and in vitro biological evaluation of 2-aminopyridine derivatives as novel PI3Kδ inhibitors for hematological cancer” (Bioorg Med Chem Lett, 2023).

What was measured:
[1] = biological target: T1, Phosphatidylinositol 4,5-bisphosphate 3-kinase catalytic subunit delta isoform (Homo sapiens, UniProt O00329); experiment: Inhibition of PI3Kdelta (unknown origin) by ADP Glo luminescent assay
T1 sequence (O00329 whole entry): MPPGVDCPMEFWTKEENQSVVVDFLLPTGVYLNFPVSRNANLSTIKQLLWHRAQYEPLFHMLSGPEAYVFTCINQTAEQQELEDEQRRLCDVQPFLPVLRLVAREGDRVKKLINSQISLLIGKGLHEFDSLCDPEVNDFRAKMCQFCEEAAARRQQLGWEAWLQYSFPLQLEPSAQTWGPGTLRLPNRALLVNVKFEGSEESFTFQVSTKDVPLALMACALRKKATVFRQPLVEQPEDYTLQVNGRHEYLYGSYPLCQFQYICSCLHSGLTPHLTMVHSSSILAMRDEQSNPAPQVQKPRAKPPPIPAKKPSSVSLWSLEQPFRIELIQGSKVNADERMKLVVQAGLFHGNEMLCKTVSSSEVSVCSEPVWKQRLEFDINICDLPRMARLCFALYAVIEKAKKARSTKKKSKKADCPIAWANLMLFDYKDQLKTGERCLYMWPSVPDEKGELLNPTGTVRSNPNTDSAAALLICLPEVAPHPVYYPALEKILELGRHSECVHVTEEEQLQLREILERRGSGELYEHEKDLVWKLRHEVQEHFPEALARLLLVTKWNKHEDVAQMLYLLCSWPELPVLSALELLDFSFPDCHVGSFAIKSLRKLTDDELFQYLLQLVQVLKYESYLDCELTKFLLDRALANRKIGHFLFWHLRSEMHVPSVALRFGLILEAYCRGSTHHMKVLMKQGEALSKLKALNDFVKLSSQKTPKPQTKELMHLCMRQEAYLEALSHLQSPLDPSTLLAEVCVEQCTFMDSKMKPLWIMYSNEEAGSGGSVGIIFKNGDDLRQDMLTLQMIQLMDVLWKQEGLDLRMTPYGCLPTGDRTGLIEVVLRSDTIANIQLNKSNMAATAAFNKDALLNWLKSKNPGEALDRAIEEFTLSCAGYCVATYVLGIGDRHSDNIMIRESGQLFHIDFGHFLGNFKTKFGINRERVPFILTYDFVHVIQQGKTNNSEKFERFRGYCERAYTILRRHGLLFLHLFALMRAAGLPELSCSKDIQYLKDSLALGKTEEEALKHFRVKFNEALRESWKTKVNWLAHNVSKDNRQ

[2] = biological target: Phosphatidylinositol 4,5-bisphosphate 3-kinase catalytic subunit gamma isoform (Homo sapiens, UniProt P48736); experiment: Inhibition of PI3Kgamma (unknown origin)
[3] = biological target: Phosphatidylinositol 4,5-bisphosphate 3-kinase catalytic subunit beta isoform (Homo sapiens, UniProt P42338); experiment: Inhibition of PI3Kbeta (unknown origin)
[4] = biological target: Phosphatidylinositol 4,5-bisphosphate 3-kinase catalytic subunit alpha isoform (Homo sapiens, UniProt P42336); experiment: Inhibition of PI3Kalpha (unknown origin)
Chain of Phosphatidylinositol 4,5-bisphosphate 3-kinase catalytic subunit alpha isoform (P42336 whole entry, canonical isoform): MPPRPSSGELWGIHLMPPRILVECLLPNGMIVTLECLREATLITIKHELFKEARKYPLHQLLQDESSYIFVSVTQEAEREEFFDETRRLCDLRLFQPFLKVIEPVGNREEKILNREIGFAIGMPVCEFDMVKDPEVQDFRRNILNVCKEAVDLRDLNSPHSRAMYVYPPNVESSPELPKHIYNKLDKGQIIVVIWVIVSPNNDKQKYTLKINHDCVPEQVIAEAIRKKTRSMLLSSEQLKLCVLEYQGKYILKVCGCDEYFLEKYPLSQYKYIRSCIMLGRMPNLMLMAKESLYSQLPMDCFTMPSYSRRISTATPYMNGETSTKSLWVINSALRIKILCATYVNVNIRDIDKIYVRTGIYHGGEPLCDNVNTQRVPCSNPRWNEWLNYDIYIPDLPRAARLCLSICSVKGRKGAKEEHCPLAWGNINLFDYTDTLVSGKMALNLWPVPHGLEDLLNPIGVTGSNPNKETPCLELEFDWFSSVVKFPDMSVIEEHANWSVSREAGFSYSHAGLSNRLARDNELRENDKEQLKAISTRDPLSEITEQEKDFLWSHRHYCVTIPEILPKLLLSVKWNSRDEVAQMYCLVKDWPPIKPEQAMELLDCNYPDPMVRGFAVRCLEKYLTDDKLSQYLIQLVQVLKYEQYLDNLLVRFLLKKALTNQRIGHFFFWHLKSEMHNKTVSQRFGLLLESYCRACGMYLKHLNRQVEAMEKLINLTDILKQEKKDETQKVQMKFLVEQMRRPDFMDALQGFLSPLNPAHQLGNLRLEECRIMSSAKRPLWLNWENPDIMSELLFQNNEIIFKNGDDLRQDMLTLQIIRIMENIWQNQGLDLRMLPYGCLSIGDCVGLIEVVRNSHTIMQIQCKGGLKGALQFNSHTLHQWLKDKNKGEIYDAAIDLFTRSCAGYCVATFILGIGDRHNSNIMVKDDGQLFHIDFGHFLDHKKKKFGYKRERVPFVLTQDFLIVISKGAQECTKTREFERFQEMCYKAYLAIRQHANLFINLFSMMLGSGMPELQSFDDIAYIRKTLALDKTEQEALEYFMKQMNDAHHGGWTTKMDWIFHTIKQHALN

Chain of Phosphatidylinositol 4,5-bisphosphate 3-kinase catalytic subunit beta isoform (P42338 whole entry, canonical isoform): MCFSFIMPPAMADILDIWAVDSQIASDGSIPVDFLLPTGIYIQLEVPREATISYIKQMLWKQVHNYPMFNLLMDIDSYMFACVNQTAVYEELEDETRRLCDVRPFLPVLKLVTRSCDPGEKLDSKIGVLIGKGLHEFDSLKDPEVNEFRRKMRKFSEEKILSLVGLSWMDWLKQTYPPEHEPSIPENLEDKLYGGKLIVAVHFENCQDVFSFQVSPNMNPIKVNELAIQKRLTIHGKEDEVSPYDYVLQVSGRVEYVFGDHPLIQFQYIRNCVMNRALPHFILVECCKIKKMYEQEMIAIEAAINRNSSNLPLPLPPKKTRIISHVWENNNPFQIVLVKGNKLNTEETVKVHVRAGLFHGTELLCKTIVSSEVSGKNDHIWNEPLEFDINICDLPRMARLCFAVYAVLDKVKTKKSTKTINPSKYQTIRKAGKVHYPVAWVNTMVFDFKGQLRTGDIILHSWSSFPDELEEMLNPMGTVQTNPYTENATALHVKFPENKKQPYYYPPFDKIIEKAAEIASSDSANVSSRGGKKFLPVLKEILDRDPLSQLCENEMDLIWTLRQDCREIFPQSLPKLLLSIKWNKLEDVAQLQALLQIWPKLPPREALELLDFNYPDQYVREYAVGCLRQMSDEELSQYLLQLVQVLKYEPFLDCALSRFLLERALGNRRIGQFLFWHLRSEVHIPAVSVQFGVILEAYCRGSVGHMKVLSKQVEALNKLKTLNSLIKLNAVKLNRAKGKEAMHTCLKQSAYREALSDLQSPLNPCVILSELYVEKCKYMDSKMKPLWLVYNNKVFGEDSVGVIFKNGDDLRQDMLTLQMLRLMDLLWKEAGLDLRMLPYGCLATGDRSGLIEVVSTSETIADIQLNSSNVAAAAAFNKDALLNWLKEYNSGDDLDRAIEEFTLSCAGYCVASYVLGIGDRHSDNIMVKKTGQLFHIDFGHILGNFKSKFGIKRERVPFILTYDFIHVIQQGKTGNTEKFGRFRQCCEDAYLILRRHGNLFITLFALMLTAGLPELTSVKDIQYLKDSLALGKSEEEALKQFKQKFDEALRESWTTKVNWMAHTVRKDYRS
Chain of Phosphatidylinositol 4,5-bisphosphate 3-kinase catalytic subunit gamma isoform (P48736 whole entry, canonical isoform): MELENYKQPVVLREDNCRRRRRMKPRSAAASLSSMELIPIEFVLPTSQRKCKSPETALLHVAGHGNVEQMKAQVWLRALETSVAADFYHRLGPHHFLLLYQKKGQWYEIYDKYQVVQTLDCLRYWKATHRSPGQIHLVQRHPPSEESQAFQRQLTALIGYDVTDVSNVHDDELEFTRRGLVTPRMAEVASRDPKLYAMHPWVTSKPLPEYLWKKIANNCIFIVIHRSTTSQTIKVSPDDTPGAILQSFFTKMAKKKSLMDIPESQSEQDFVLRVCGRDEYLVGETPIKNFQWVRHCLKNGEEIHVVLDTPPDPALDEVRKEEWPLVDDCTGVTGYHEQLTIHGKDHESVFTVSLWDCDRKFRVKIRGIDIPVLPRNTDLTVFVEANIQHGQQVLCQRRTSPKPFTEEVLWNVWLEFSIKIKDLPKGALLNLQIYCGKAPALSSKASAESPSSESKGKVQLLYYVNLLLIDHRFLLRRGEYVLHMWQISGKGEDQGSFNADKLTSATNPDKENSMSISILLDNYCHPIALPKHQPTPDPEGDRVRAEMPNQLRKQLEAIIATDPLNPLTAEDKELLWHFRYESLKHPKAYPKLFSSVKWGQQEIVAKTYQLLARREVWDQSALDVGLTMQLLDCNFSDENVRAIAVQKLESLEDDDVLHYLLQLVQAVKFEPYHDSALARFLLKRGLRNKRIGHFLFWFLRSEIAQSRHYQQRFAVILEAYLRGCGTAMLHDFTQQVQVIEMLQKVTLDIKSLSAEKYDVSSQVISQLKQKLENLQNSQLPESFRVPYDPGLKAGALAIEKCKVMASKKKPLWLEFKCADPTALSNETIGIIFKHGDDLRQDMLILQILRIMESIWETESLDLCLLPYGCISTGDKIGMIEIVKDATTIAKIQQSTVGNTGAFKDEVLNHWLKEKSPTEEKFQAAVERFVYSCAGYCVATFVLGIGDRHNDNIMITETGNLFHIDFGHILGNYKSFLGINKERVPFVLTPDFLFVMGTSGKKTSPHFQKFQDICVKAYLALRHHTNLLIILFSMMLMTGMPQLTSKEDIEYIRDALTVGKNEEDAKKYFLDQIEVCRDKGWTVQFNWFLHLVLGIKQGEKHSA

SMILES	IC50 [1]	other results
Nc1ccc(-c2cnc(N)c(N)c2)cn1	> 50000 nM	
CCNC(=O)Nc1ccc(-c2cnc(Cl)c(NS(=O)(=O)c3ccccc3)c2)cn1	104 nM	IC50 [2]: 180 nM; IC50 [3]: 235 nM; IC50 [4]: 412 nM
CCCC(=O)Nc1ccc(-c2cnc(Cl)c(NS(=O)(=O)c3ccccc3)c2)cn1	46 nM	
CCC(=O)Nc1ccc(-c2cnc(Cl)c(NS(=O)(=O)c3ccccc3)c2)cn1	49 nM	
Nc1ccc(-c2cnc(Cl)c(NS(=O)(=O)c3ccc(F)cc3F)c2)cn1	67 nM	
CCOc1ncc(-c2ccc(N)nc2)cc1N	> 50000 nM	
CC(=O)Nc1ccc(-c2cnc(Cl)c(NS(=O)(=O)c3ccccc3)c2)cn1	48 nM	
Nc1cncc(-c2ccc(N)nc2)c1	> 50000 nM	
N#Cc1ncc(-c2ccc(N)nc2)cc1N	33500 nM	
Nc1ccc(-c2ccc(Cl)nc2)cn1	47500 nM	
Nc1ccc(-c2cnc(Cl)c(C(F)(F)F)c2)cn1	46600 nM	
Nc1ccc(-c2cnc(Cl)c(NS(=O)(=O)c3ccccc3)c2)cn1	52 nM	
